The target in test [1] is mSTING (Mus musculus, UniProt Q3TBT3). As to the kind of experiment: Radiometric filtration binding competition assay, mSTING.
In test [2] the target is hSTING-WT (Homo sapiens (Human), UniProt Q86WV6, H232R). As to the kind of experiment: Radiometric filtration binding competition assay, hSTING-WT.
Protocol: (§1) A radiometric filtration binding competition assay was performed to quantify the binding affinity of compounds of the present application for the human or mouse STING protein, or associated HAQ human isoform. […] The resulting dose response was fit by non-linear regression to determine an IC50 value, from which a Ki value for each compound was extrapolated.
(§2) The resulting complexes were then filtered, dried, and scintillation fluid was added and the remaining radio signal was measured to determine the degree of compound ligand inhibition. This assay format was optimized for both the WT and HAQ isoforms of the human protein and the mouse orthologue protein.
(§3) Probe Concentration: Minimum concentration that achieved max assay window • g. Assay Format: Scintillation Proximity Bead or Filtration Binding Plate • h. […] Assay incubation times for successive incubation steps
(§4) WT-hSWAT: WT_FBA_HIS-SUMO-hSWAT IC50 (μM) (“WT”=Wild-type); HAQ-hSWAT: HAQ_FBA_HIS-SUMO-hSWAT IC50 (μM) (“HAQ”=human HAQ allele of STING protein); and WT-mSWAT: MOUSE_FBA_HIS-SUMO-mnSWAT IC50 (μM) which is the mouse isoform of STING protein.
Test [3] deals with T1, hSTING-HAQ (Homo sapiens (Human), UniProt Q86WV6, G230A/H232R/R293Q). As to the kind of experiment: Radiometric filtration binding competition assay, hSTING-HAQ.
Protocol: as §1, §2, §3, §4
Test [4] deals with mSTING-R232 (Mus musculus, UniProt Q3TBT3). As to the kind of experiment: STING differential scanning fluorimetry (DSF) assay, mouse STING. The conditions noted are these: net shift in melting temperature.
Test [5] addresses hSTING-R232 (Homo sapiens (Human), UniProt Q86WV6, H232R). As to the kind of experiment: STING differential scanning fluorimetry (DSF) assay, WT human STING. Conditions: WT (R232) human STING aa140-379, net shift in melting temperature.
In test [6] the target is T1, hSTING-HAQ. As to the kind of experiment: STING differential scanning fluorimetry (DSF) assay, HAQ human STING. Conditions: HAQ human STING aa140-379, net shift in melting temperature.
Protocol: A STING DSF assay was performed to determine protein thermostability shift in response to small molecule ligand binding. A STING thermostability shift assay based on differential scanning fluorimetry was used to measure (1) the net shift in melting temperature (ΔTm)between the apo and ligand-bound states of the STING protein and (2) the concentration of the thermal denaturation transition (EC50) as a surrogate measure of binding affinity (K). […] Protein in assay buffer was transferred to a 384 well plate and incubated with the hydrophobic fluorescent dye SYBR Orange. A temperature ramp was applied to the plate and the resulting dye fluorescence was plotted as a function of temperature. The first derivative of this function (dF/dT) was then used to extrapolate the melting temperature of the protein at various concentrations of compound and determine the thermal denaturation profile of a protein/compound complex.
• 1. Protein construct (affinity tag removal vs SUMO-fusion construct) • 2. Protein concentration • 3. Dye concentration • 4. Buffer • 5. Thermal ramp velocity • 6. DMSO tolerance • 7. Compound titration parameters • 8. […] 5 μM purified Target STING Protein • 3. 8 μM Sypro Orange Dye • 4. Buffer: 100 mM NaCl, 30 mM HEPES, pH 7.5 • 5. Thermal Ramp: 0.5° C./min • 6. <1% DMSO • 7. 11 point, 2 fold dilution, duplicate, 300 μM high concentrations • 8.
Test [7] has as its target STING protein (Homo sapiens (Human), UniProt Q86WV6, H232R). As to the kind of experiment: Cell based reporter assay of IRF activation (IRF-luciferase), THP1-dual-KI R232. The conditions noted are these: read-out: THP1-dual-KI R232_IRF(Luciferase)_Activity Maximum measured (%).
Description: Briefly, THP-1 monocytes were transfected and selected for stable integration of 2 reporter constructs. Clones incorporating stably integrated vectors were further selected by antibiotic resistance to blastocidin and zeocin. The reporter constructs included: (1) firefly luciferase reporter gene under the control of an ISG54 promoter fused to five interferon (IFN)-stimulated response elements to measure IRF transcription factor binding activity and (2) secreted embryonic alkaline phosphatase reporter gene under transcription control of an IFN-beta minimal promoter fused to 5 copies of the NFkB consensus transcriptional response element and 3 copies of the c-Rel binding site.
The resulting THP-1 cell line was further modified to incorporate 3 amino acid point mutations (H71R A230G Q293R). This modification of the native TMEM173 gene in THP-1 cells (HAQ) was designed to produce a cell reporter that expressed the most common allelic variant in the human population (THP-1 R232, available from InvivoGen). Alternatively, the TMEM173 gene was knocked out to provide a congenic control to counter-screen for compound activation that was independent of the STING protein (THP-1 STING KO).
Once cell lines were established, reporter assay protocols were developed and optimized to screen small molecule compounds for agonist activity. Assay optimization for efficacy and Z′ value included titration of the following parameters:
• 1. Cell pre-activation with PMA • 2. Cell seeding density • 3. DMSO tolerance • 4. Media selection • 5. FBS concentration • 6. Incubation time • 7. Co-Assessment of cell viability by CTG assay • 8. Appropriate HPE and ZPE controls • 9. Dose Response Titration Final Assay SOP Conditions • 1. No pre-activation with PMA • 2. 5×10^4 cells/well in 96 well plate format • 3. <0.5% DMSO • 4. […] 10% FBS • 6. 14-18 hr incubation • 7. Cell Titer Glo reagent (Promega) following supernatant removal • 8.
The target of test [8] is hSTING-CTD (Homo sapiens (Human), UniProt Q86WV6). As to the kind of experiment: Human STING protein FP competition concentration response assay. Format: binding. In a few lines: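 Fluorescence polarization competition: recombinant hSTING-CTD (10 uM final) with 30 nM fluorescein-labeled c-di-GMP probe and titrated compound (2-fold, 14 points; 3.35% DMSO) in PBS, 10-20 min at r.t. Fluorescence anisotropy read; IC50 from 4-parameter logistic fit.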

Data on 12 compounds can be found in patent US11414387B2, “Oxoacridinyl acetic acid derivatives and methods of use” (Stingthera, Inc., priority 2017, dated 2022).

Some results are limits rather than exact numbers.

T1 sequence (Q86WV6 140-379 G230A/H232R/R293Q): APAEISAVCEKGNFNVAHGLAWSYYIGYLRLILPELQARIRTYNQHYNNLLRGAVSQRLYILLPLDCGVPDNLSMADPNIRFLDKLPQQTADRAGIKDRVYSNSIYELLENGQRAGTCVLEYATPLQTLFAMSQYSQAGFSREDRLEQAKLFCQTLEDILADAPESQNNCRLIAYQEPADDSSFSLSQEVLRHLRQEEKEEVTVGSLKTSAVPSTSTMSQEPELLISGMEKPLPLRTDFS
STING protein, sequence (Q86WV6 whole entry H232R): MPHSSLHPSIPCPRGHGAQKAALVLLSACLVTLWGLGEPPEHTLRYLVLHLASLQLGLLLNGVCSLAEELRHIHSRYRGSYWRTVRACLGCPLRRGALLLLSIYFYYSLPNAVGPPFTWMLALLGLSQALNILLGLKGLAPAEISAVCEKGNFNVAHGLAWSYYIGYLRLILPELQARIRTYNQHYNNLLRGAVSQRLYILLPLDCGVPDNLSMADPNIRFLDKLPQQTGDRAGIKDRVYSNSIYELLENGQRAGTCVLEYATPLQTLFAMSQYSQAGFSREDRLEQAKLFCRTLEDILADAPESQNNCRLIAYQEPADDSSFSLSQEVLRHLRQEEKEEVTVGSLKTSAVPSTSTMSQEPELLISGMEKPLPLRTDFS
hSTING-WT, sequence (Q86WV6 140-379 H232R): as the sequence (Q86WV6 140-379 G230A/H232R/R293Q) above, with A91G, Q154R counted along it
hSTING-R232, sequence (Q86WV6 140-379 H232R): as the sequence (Q86WV6 140-379 G230A/H232R/R293Q) above, with A91G, Q154R counted along it
hSTING-CTD, sequence (Q86WV6 135-379): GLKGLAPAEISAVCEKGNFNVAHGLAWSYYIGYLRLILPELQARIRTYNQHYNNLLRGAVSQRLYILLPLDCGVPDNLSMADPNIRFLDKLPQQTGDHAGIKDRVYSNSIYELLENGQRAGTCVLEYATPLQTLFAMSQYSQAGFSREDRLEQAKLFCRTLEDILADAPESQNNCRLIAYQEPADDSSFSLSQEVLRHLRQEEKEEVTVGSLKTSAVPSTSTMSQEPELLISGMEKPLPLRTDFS

`Cc1cccc(-c2ccc3c(=O)c4ccc(Cl)c(Cl)c4n(CC(=O)O)c3c2)c1` [Compound 151]: the figures for the IC50 in test [1], in test [2] and in test [3] were < 20 µM, 20 to 100 µM and 20 to 100 µM, respectively. Also, the “MOUSE DSF_6xHIS-SUMO Tm Shift (° C.)” value in test [4] is reported as “C (“C” = 5-15° C.)”. Besides, in test [5], the “WT_DSF_hSWAT Tm Shift (° C.)” value was “B (“B” = 0-2° C.)”. For the same compound, the “HAQ_DSF_hSWAT Tm Shift (° C.)” value in test [6] is reported as “C (“C” = 2-7° C,)”. Moreover, in test [7], the Emax was < 5%.

For the compound `O=C(O)Cn1c2cc(NC3CCCCC3)ccc2c(=O)c2ccc(Cl)c(Br)c21` [Compound 110], the IC50 in test [1] was < 20 µM; in test [2] it was < 20 µM; in test [3] it was 20 to 100 µM. Besides, in test [4], the “MOUSE DSF_6xHIS-SUMO Tm Shift (° C.)” value was “D (“D” > 15° C.)”. The “WT_DSF_hSWAT Tm Shift (° C.)” value in test [5] is reported as “D (“D” > 7° C.)”. The “HAQ_DSF_hSWAT Tm Shift (° C.)” value in test [6] is reported as “D (“D” > 7° C.)”. Besides, the Emax in test [7] is > 50%.

As for `CC(C)c1ccc2c(=O)c3ccc(Cl)c(Br)c3n(CC(=O)O)c2c1` [Compound 111], the IC50 was < 100 µM in test [8], 20 to 100 µM in test [1], 20 to 100 µM in test [2] and 100 to 300 µM in test [3]. Also, the “MOUSE DSF_6xHIS-SUMO Tm Shift (° C.)” value in test [4] is recorded as “C (“C” = 5-15° C.)”. Moreover, in test [5], the “WT_DSF_hSWAT Tm Shift (° C.)” value is listed as “D (“D” > 7° C.)”. The “HAQ_DSF_hSWAT Tm Shift (° C.)” value in test [6] is given as “D (“D” > 7° C.)”. For the same compound, the Emax in test [7] was > 50%.

`O=C(O)Cn1c2cc(C3CCCCC3)ccc2c(=O)c2ccc(Cl)c(Br)c21` [Compound 147]: the IC50 in test [1] was < 20 µM; in test [2], < 20 µM; in test [3], 20 to 100 µM. Further, the “MOUSE DSF_6xHIS-SUMO Tm Shift (° C.)” value in test [4] is “D (“D” > 15° C.)”. Also, the “WT_DSF_hSWAT Tm Shift (° C.)” value in test [5] was “D (“D” > 7° C.)”. For the same compound, the “HAQ_DSF_hSWAT Tm Shift (° C.)” value in test [6] is “D (“D” > 7° C.)”. Moreover, the Emax in test [7] was > 50%.

`CC1(C)CC=C(c2ccc3c(=O)c4ccc(Cl)c(Cl)c4n(CC(=O)O)c3c2)CC1` [Compound 159]: the half-inhibitory concentration (IC50) in test [1] was < 20 µM; in test [2] it was 20 to 100 µM; in test [3], 20 to 100 µM. The “MOUSE DSF_6xHIS-SUMO Tm Shift (° C.)” value in test [4] is given as “C (“C” = 5-15° C.)”. The “WT_DSF_hSWAT Tm Shift (° C.)” value in test [5] was “A (“A” < 0° C.)”. In addition, in test [6], the “HAQ_DSF_hSWAT Tm Shift (° C.)” value is listed as “A (“A” < 0° C.)”. The Emax in test [7] is 5 to 25%.

On to `O=C(O)Cn1c2cc(Nc3cnccn3)ccc2c(=O)c2ccc(Cl)c(Cl)c21` [Compound 217], for which the figures for the half-inhibitory concentration (IC50) in test [1], in test [2] and in test [3] were < 20 µM, 20 to 100 µM and 100 to 300 µM, respectively. Moreover, the “WT_DSF_hSWAT Tm Shift (° C.)” value in test [5] is reported as “D (“D” > 7° C.)”. In test [6], the “HAQ_DSF_hSWAT Tm Shift (° C.)” value is “D (“D” > 7° C.)”. Also, the Emax in test [7] was > 50%.

`COc1c(Cl)ccc2c(=O)c3ccc(C(C)(C)C)cc3n(CC(=O)O)c12` [Compound 204]: the IC50 in test [1] was < 20 µM; in test [2], < 20 µM; in test [3], 20 to 100 µM. In addition, in test [5], the “WT_DSF_hSWAT Tm Shift (° C.)” value was “D (“D” > 7° C.)”. Moreover, the “HAQ_DSF_hSWAT Tm Shift (° C.)” value in test [6] was “D (“D” > 7° C.)”. For the same compound, the Emax in test [7] was > 50%.

As for `CC(C)(C)c1ccc2c(=O)c3ccc(Cl)c(Br)c3n(CC(=O)O)c2c1` [Compound 176], the concentration for half-maximal inhibition (IC50) is < 20 µM in test [1], 20 to 100 µM in test [2] and 20 to 100 µM in test [3]. Further, the “MOUSE DSF_6xHIS-SUMO Tm Shift (° C.)” value in test [4] was “D (“D” > 15° C.)”. The “WT_DSF_hSWAT Tm Shift (° C.)” value in test [5] was “D (“D” > 7° C.)”. For the same compound, the “HAQ_DSF_hSWAT Tm Shift (° C.)” value in test [6] was “D (“D” > 7° C.)”. Also, the Emax in test [7] is > 50%.

In the case of `O=C(O)Cn1c2cc(Nc3ccc(F)cc3)ccc2c(=O)c2ccc(Cl)c(Cl)c21` [Compound 218], the IC50 in test [1] is < 20 µM; in test [2] it was < 20 µM; in test [3], 20 to 100 µM. In addition, in test [4], the “MOUSE DSF_6xHIS-SUMO Tm Shift (° C.)” value is “D (“D” > 15° C.)”. Moreover, the “HAQ_DSF_hSWAT Tm Shift (° C.)” value in test [6] is “D (“D” > 7° C.)”. In test [7], the Emax was > 50%.

As for `O=C(O)Cn1c2cc(C3CCCCC3)ccc2c(=O)c2ccc(Cl)c(Cl)c21` [Compound 115], the half-inhibitory concentration (IC50) in test [8] was < 100 µM; in test [1], < 20 µM; in test [2], 20 to 100 µM; in test [3], 100 to 300 µM. The “MOUSE DSF_6xHIS-SUMO Tm Shift (° C.)” value in test [4] is reported as “D (“D” > 15° C.)”. The “WT_DSF_hSWAT Tm Shift (° C.)” value in test [5] is on record as “C (“C” = 2-7° C,)”. Further, the “HAQ_DSF_hSWAT Tm Shift (° C.)” value in test [6] is given as “C (“C” = 2-7° C,)”. Also, the Emax in test [7] lay within 25 to 50%.

For the compound `CSc1c(Cl)ccc2c(=O)c3ccc(C(C)(C)C)cc3n(CC(=O)O)c12` [Compound 215], the half-inhibitory concentration (IC50) in test [1], in test [2] and in test [3] was < 20 µM each time. Further, the “WT_DSF_hSWAT Tm Shift (° C.)” value in test [5] is on record as “D (“D” > 7° C.)”. Besides, the “HAQ_DSF_hSWAT Tm Shift (° C.)” value in test [6] is “D (“D” > 7° C.)”. In addition, the Emax in test [7] is > 50%.

For `COc1c(Cl)ccc2c(=O)c3ccc(Nc4ccccc4)cc3n(CC(=O)O)c12` [Compound 207], the IC50 in test [1] is < 20 µM; in test [2], < 20 µM; in test [3], 20 to 100 µM. The “MOUSE DSF_6xHIS-SUMO Tm Shift (° C.)” value in test [4] is “D (“D” > 15° C.)”. For the same compound, the “WT_DSF_hSWAT Tm Shift (° C.)” value in test [5] is listed as “D (“D” > 7° C.)”. Moreover, the “HAQ_DSF_hSWAT Tm Shift (° C.)” value in test [6] is reported as “D (“D” > 7° C.)”. In addition, the Emax in test [7] was > 50%.
